# Earlier results, collected in US4127519A, “Octadecapeptides, intermediates therefor, and compositions and methods employing said octadecapeptides” (priority 1977, dated 1978).
# How the values were obtained:
# [1] = injected directly into the brain of the rat
# [2] = test system: brain opiate receptor sites
substance,measurement,setting,value
H-Tyr-Gly-Gly-Phe-Met-OH [methionine enkephalin],analgesic activity,[1],weak analgesic agent of short duration
same,binding to partially purified brain opiate receptor sites,[2],binds stereo-specifically
